Reference: patent US10117890B2, “Methods and compositions for treating pain” (Academia Sinica, priority 2012, dated 2018)
Entries after “also recorded” stand apart in the source; their conditions may differ.

Experiments:
[1] = system: muscle nociceptors (ASIC3-positive muscle afferent DRG neurons expressing ISP-O); assay: Whole-cell patch-clamp recording of outward currents in muscle afferent DRG neurons; type: cell-based, mice
Protocol: The digested DRG neurons were washed with fetal calf serum (FCS)-free DMEM or DMEM containing 10% FCS during each treatment. Fully digested DRGs were triturated and plated on poly-L-lysine-coated cover slides. Cell cultures were maintained in a 5% CO2 incubator at 37° C.
Whole-cell patch-clamp recordings of muscle-afferent neurons involved use of Axopatch MultiClamp 700B (Axon Instruments). Neurons with membrane potential >−40 mV were discarded. The bridge was balanced in current-clamp recording, and the series resistance was compensated 70% in voltage-clamp recording with […] 700B compensation circuitry. All experiments were performed at room temperature (21-25° C.) and completed within 30 hr post-seeding. Unless specifically mentioned, the patch pipettes were prepared in 1-5 MΩ and filled with internal solution containing (in mM) 100 KCl, 2 Nae-ATP, 0.3 Na3-GTP, 10 EGTA, 5 MgCl2, and 40 HEPES, adjusted to pH 7.4 with KOH. Recording cells were superfused in artificial cerebrospinal fluid (ACSF) by control with gravitational force. The ACSF contained (in mM) 130 NaCl, 5 KCl, 1 MgCl2, 2 CaCl2, 10 glucose, and 20 HEPES, adjusted to pH 7.4 with NaOH. Osmolarity was adjusted to 300 mOsm. The acidic ACSF was titrated to pH 6.8 by […]. […] If not specifically mentioned, drugs listed above were from Sigma Chemical (St. Louis, Mo.).
The procedure was repeated at least 2 times to ensure consistent data. […] ACSF-containing compounds were superfused for 1 min to ensure complete replacement of previous perfusate between treatments. […] A recording pipette containing 1 mM GDP-β-S was used in GTP dialysis. The GABA-B current was induced by 100 μM Baclofen at the beginning of dialysis (0, 1 and 2 min after whole-cell patch clamp). Then, Baclofen was used to re-stimulate the dialyzed neurons after 10-min dialysis (10, 11 and 12 min after whole-cell patch clamp).

[2] = system: acid-induced chronic muscle pain after genistein treatment; assay: Modified acid-induced chronic muscle pain model with genistein treatment (fibromyalgia model); type: in vivo, mice
Protocol: Panel A: a diagram showing that mice were first received an intramuscular injection of genistein (a tyrosine kinase inhibitor) and an acid saline to one side of gastrocnemius muscle, and then pain behaviors were assayed by using von-Frey filament test at 4 hr (D0) and until 29 days (D29) after acid injection. Panel B: is a chart showing that the single acid injection induced long-lasting chronic hyperalgesia in mice with genistein pretreatment (open circles, n=5), but only transient hyperalgesia in mice without genistein pretreatment (filled circles, n=4).
Mice received an intramuscular acid injection in the gastrocnemius muscle (GM) containing 20 μl acid saline (pH 4.0) with or without (Sar^9, Met(O2)^11)-substance P (SP; 4, 10, or 40 μM) or 100 μM RP67580 or 200 μM XE991. Mechanical hyperalgesia was assessed by applying a 0.2-mN von Frey filament to the plantar surface of both hind paws of mice. […] Responses of the paw to mechanical stimuli were measured before injection and at 4 and 24 hr and 5 days after the first acid injection (day 0) and at 4, 24, and 72 hr and 1 week after the second acid injection (day 5). For single-injection experiments, responses to mechanical stimuli were measured before the injection, at 4 hr and at 1, 3, 5, 7, 9, 11, 13, 15 and 22 days after the injection or at 4, 24, 48 hr and 7 and 14 days after the injection. […]

ICS-induced pain = assay: Intermittent cold stress (ICS) mouse model of fibromyalgia, von Frey test; type: in vivo, mice
Protocol: Mechanical hyperalgesia was assessed by applying a 0.2 mN von Frey filament to the plantar surface of both hind paws. For each paw, the filament was applied for 5 times at 30-s intervals.
To induce fibromyalgia-like symptoms, mice were treated with intermittent cold stress, which produces long-lasting (more than 2 weeks) thermal hyperalgesia and mechanical allodynia, predominantly in females. Method: Mice were placed on stainless mesh plate in a cold room at 4° C. overnight (from 4:30 pm to 10:00 am), followed by intermittent cold stress with environment temperatures alternating between 24 and 4° C. every 30 min, from 10:00 am to 4:30 pm. These procedures were repeated twice. On day 3, the mice were adapted to 24 C for 1 h before behavioral testing.
The second fibromyalgia model is developed by Ueda's group, in which mice were treated with intermittent cold stress for 2 days (Nishiyori & Ueda, 2008). Mice treated with intermittent cold stress will develop long-lasting (>2 weeks) mechanical and thermal hyperalgesia. Analgesic effect of T1-11 was tested in these mice 5 day after intermittent cold stress (ICS). […] Moreover, we found T1-11 and substance P have synergistic effect in treating the ICS-induced pain.

[3] = system: acid(ASIC3)-induced chronic muscle pain; assay: Acid-induced chronic muscle pain model (repeated intramuscular acid injection, von Frey test); type: in vivo, mice; conditions: T1-11 4 pmole, co-injected with acid saline pH 4.0 into gastrocnemius muscle
From the text: Adult (8- to 12-wk-old) C57/BL6 mice were used. All procedures followed the Guide for the Use of Laboratory Animals (National Academy Press, Washington D.C., USA) and were approved by the Institutional Animal Care and Use Committee of Academia Sinica. We aimed to minimize the number of animals used and their suffering without compromising the quality of the experiments. The generation and genotyping of Tac1^−/− mice and Asic3^−/− mice were as described. Both null mutant mice were backcrossed to C57/BL6 for 10 generations to establish a congenic strain. Congenic Tac1^−/− Asic3^−/− mice were offspring of Tacl^+/− and Asic3^+/− intercrosses.
Mice received an intramuscular acid injection in the gastrocnemius muscle (GM) containing 20 μl acid saline (pH 4.0) with or without (Sar^9, Met(O2)^11)-substance P (SP; 4, 10, or 40 μM) or 100 μM RP67580 or 200 μM XE991. Mechanical hyperalgesia was assessed by applying a 0.2-mN von Frey filament to the plantar surface of both hind paws of mice. Mice were acclimatized in an acrylic cubicle for 60 min before testing. A positive response was defined as the foot lifting when the von Frey filament was applied. For each paw, the filament was applied 5 times at 30-sec intervals. Responses of the paw to mechanical stimuli were measured before injection and at 4 and 24 hr and 5 days after the first acid injection (day 0) and at 4, 24, and 72 hr and 1 week after the second acid injection (day 5). For single-injection experiments, responses to mechanical stimuli were measured before the injection, at 4 hr and at 1, 3, 5, 7, 9, 11, 13, 15 and 22 days after the injection or at 4, 24, 48 hr and 7 and 14 days after the injection. NK1-selective agonist ((Sar^9, Met(O2)^11)—SP) was from Sigma Chemical (St. Louis, Mo.). NK1-selective antagonist (RP67580) and XE991 were from Tocris (Avonmouth, UK). The experimenters were blinded to the experimental manipulations. The person who conducted von Frey test had no information of the mouse genotypes or drug injections.

EC50 ([1]; Mus musculus, DRG neuron, peak whole-cell current, 1, 3, 10, 30 and 100 nM, n=11, read-out: EC50 of T1-11-induced outward current (IT1-11)): 1.3 nM
Compound: OC[C@H]1O[C@@H](n2cnc3c(NCc4ccc(O)cc4)ncnc32)[C@H](O)[C@@H]1O [T1-11, N^6-(4-hydroxybenzyl)adenosine]
IT1-11 in A2A−/− muscle afferent DRG neurons ([1]; A2A−/− neurons): not changed
induction of outward current in ASIC3/SP-expressing muscle DRG neurons ([1]; SP-sensitive muscle nociceptors): elicited a slow inactivating outward current
effect on M-type potassium current ([1]; voltage shift from −50 mV to −20 mV, muscle afferent neurons expressing ISP-O): enhanced M current
analgesic effect on mice that have developed chronic muscle pain ([2]; T1-11 75-150 μg/kg (i.p.)): dose-dependent analgesic effect
hyperalgesia after genistein pretreatment and single acid injection, co-injection of acid and T1-11 ([2]; co-injection with acid, n=6, D0 to D29): only showed the transient hyperalgesia
analgesic effect on ICS-treated mice, T1-11 alone (ICS-induced pain; T1-11 3 μg/kg alone): did not show analgesic effect
analgesic effect on ICS-treated mice, combination (ICS-induced pain; T1-11 3 μg/kg combined with 0.6 mg/kg SM-substance P): showed analgesic effect
analgesic effect on mice treated with ICS (ICS-induced pain; T1-11 30 ug/kg): had analgesic effect
therapeutic dose to treat the ICS-induced pain (ICS-induced pain; i.p., 5 day after ICS): 0.03 mg/kg
acid-induced hyperalgesia, co-injection of acid and T1-11 [3]: abolished the transient hyperalgesia and prevented the development of chronic hyperalgesia; also recorded: still had analgesic effects
